In PubChem BioAssay (NCI):
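Each compound was tested at five concentrations against cells in 96-well plates for 48 hours. GI50 = concentration required for 50% inhibition of growth. At the TGI there is no net growth.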

Tests used:
Assay in all cases: DTP human tumour cell line panel, 48 h
786-0 renal = test system: 786-0 renal
A549 NSCLC = test system: A549 NSCLC
ACHN renal = test system: ACHN renal
BT-549 breast = test system: BT-549 breast
CAKI-1 renal = test system: CAKI-1 renal
CCRF-CEM leukemia = test system: CCRF-CEM leukemia
DU-145 prostate = test system: DU-145 prostate
EKVX NSCLC = test system: EKVX NSCLC
HCC-2998 colon = test system: HCC-2998 colon
HCT-116 colon = test system: HCT-116 colon
HCT-15 colon = test system: HCT-15 colon
HL-60(TB) leukemia = test system: HL-60(TB) leukemia
HOP-62 NSCLC = test system: HOP-62 NSCLC
HS 578T breast = test system: HS 578T breast
HT29 colon = test system: HT29 colon
IGROV1 ovarian = test system: IGROV1 ovarian
K-562 leukemia = test system: K-562 leukemia
KM12 colon = test system: KM12 colon
LOX IMVI melanoma = test system: LOX IMVI melanoma
M14 melanoma = test system: M14 melanoma
MALME-3M melanoma = test system: MALME-3M melanoma
MCF7 breast = test system: MCF7 breast
MDA-MB-231 breast = test system: MDA-MB-231 breast
MDA-N = test system: MDA-N
MOLT-4 leukemia = test system: MOLT-4 leukemia
NCI-H226 lung = test system: NCI-H226 lung
NCI-H23 lung = test system: NCI-H23 lung
NCI-H460 lung = test system: NCI-H460 lung
NCI-H522 lung = test system: NCI-H522 lung
NCI/ADR-RES ovarian = test system: NCI/ADR-RES ovarian
OVCAR-4 ovarian = test system: OVCAR-4 ovarian
OVCAR-5 ovarian = test system: OVCAR-5 ovarian
OVCAR-8 ovarian = test system: OVCAR-8 ovarian
PC-3 prostate = test system: PC-3 prostate
RPMI-8226 leukemia = test system: RPMI-8226 leukemia
SF-268 CNS = test system: SF-268 CNS
SF-295 CNS = test system: SF-295 CNS
SF-539 CNS = test system: SF-539 CNS
SK-MEL-2 melanoma = test system: SK-MEL-2 melanoma
SK-MEL-28 melanoma = test system: SK-MEL-28 melanoma
SK-MEL-5 melanoma = test system: SK-MEL-5 melanoma
SK-OV-3 ovarian = test system: SK-OV-3 ovarian
SN12C renal = test system: SN12C renal
SNB-19 CNS = test system: SNB-19 CNS
SNB-75 CNS = test system: SNB-75 CNS
SR leukemia = test system: SR leukemia
SW-620 colon = test system: SW-620 colon
T-47D breast = test system: T-47D breast
TK-10 renal = test system: TK-10 renal
U251 CNS = test system: U251 CNS
UACC-257 melanoma = test system: UACC-257 melanoma
UACC-62 melanoma = test system: UACC-62 melanoma
UO-31 renal = test system: UO-31 renal
A498 renal = test system: A498 renal
COLO 205 colon = test system: COLO 205 colon
HOP-92 NSCLC = test system: HOP-92 NSCLC
MDA-MB-435 = test system: MDA-MB-435
OVCAR-3 ovarian = test system: OVCAR-3 ovarian
RXF 393 renal = test system: RXF 393 renal

C/C=C/[C@@]1(OC(=O)c2ccccc2)C[C@@H]2CCCC[C@@H]21
TGI (786-0 renal): 31.8 µM | TGI (A549 NSCLC): 36.7 µM | TGI (ACHN renal): 31.5 µM | TGI (BT-549 breast): 28.2 µM | TGI (CAKI-1 renal): 31.4 µM | TGI (CCRF-CEM leukemia): 45.4 µM | TGI (DU-145 prostate): 31.4 µM | TGI (EKVX NSCLC): 31.7 µM | TGI (HCC-2998 colon): 44.3 µM | TGI (HCT-116 colon): 29.4 µM | TGI (HCT-15 colon): 36.9 µM | TGI (HL-60(TB) leukemia): 30.9 µM | TGI (HOP-62 NSCLC): 29 µM | TGI (HS 578T breast): 27.2 µM | TGI (HT29 colon): 31.7 µM | TGI (IGROV1 ovarian): 32.1 µM | TGI (K-562 leukemia): 56.7 µM | TGI (KM12 colon): 32.9 µM | TGI (LOX IMVI melanoma): 44.7 µM | TGI (M14 melanoma): 32.3 µM | TGI (MALME-3M melanoma): 35.3 µM | TGI (MCF7 breast): 33.3 µM | TGI (MDA-MB-231 breast): 36.3 µM | TGI (MDA-N): 33.4 µM | TGI (MOLT-4 leukemia): 40.2 µM | TGI (NCI-H226 lung): 30.9 µM | TGI (NCI-H23 lung): 31 µM | TGI (NCI-H460 lung): 34.2 µM | TGI (NCI-H522 lung): 29.9 µM | TGI (NCI/ADR-RES ovarian): 41.1 µM | TGI (OVCAR-4 ovarian): 32.2 µM | TGI (OVCAR-5 ovarian): 30.8 µM | TGI (OVCAR-8 ovarian): 34.7 µM | TGI (PC-3 prostate): 37 µM | TGI (RPMI-8226 leukemia): 38.5 µM | TGI (SF-268 CNS): 32.4 µM | TGI (SF-295 CNS): 33.3 µM | TGI (SF-539 CNS): 33.1 µM | TGI (SK-MEL-2 melanoma): 30.3 µM | TGI (SK-MEL-28 melanoma): 32.9 µM | TGI (SK-MEL-5 melanoma): 29.3 µM | TGI (SK-OV-3 ovarian): 32.6 µM | TGI (SN12C renal): 36.7 µM | TGI (SNB-19 CNS): 31.6 µM | TGI (SNB-75 CNS): 27.3 µM | TGI (SR leukemia): 37.9 µM | TGI (SW-620 colon): 48.3 µM | TGI (T-47D breast): 36.5 µM | TGI (TK-10 renal): 36 µM | TGI (U251 CNS): 29.8 µM | TGI (UACC-257 melanoma): 34.1 µM | TGI (UACC-62 melanoma): 32.9 µM | TGI (UO-31 renal): 22.9 µM

CCCC(=O)O
TGI (786-0 renal): > 18700 µM | TGI (A498 renal): 10400 µM | TGI (A549 NSCLC): > 18700 µM | TGI (ACHN renal): 14500 µM | TGI (BT-549 breast): > 18700 µM | TGI (CAKI-1 renal): 12000 µM | TGI (CCRF-CEM leukemia): > 18700 µM | GI50 (COLO 205 colon): 2550 µM | TGI (COLO 205 colon): 9160 µM | TGI (DU-145 prostate): 13200 µM | TGI (EKVX NSCLC): > 18700 µM | GI50 (HCC-2998 colon): 10800 µM | TGI (HCC-2998 colon): > 18700 µM | TGI (HCT-116 colon): > 18700 µM | TGI (HCT-15 colon): > 18700 µM | GI50 (HL-60(TB) leukemia): 1120 µM | TGI (HL-60(TB) leukemia): > 18700 µM | TGI (HOP-62 NSCLC): > 18700 µM | TGI (HOP-92 NSCLC): 14200 µM | GI50 (HS 578T breast): 4950 µM | TGI (HS 578T breast): > 18700 µM | TGI (HT29 colon): > 18700 µM | TGI (IGROV1 ovarian): > 18700 µM | TGI (KM12 colon): > 18700 µM | TGI (LOX IMVI melanoma): 8470 µM | TGI (M14 melanoma): > 18700 µM | GI50 (MALME-3M melanoma): 3490 µM | TGI (MALME-3M melanoma): > 18700 µM | TGI (MDA-MB-231 breast): 18000 µM | TGI (MDA-MB-435): > 18700 µM | TGI (MDA-N): > 18700 µM | TGI (MOLT-4 leukemia): > 18700 µM | TGI (NCI-H226 lung): > 18700 µM | TGI (NCI-H23 lung): > 18700 µM | TGI (NCI-H460 lung): > 18700 µM | TGI (NCI-H522 lung): > 18700 µM | GI50 (NCI/ADR-RES ovarian): 1460 µM | TGI (NCI/ADR-RES ovarian): > 18700 µM | TGI (OVCAR-3 ovarian): > 18700 µM | TGI (OVCAR-4 ovarian): > 18700 µM | TGI (OVCAR-5 ovarian): > 18700 µM | TGI (OVCAR-8 ovarian): > 18700 µM | TGI (PC-3 prostate): > 18700 µM | GI50 (RPMI-8226 leukemia): 473 µM | TGI (RXF 393 renal): 16100 µM | TGI (SF-268 CNS): > 18700 µM | TGI (SF-295 CNS): > 18700 µM | TGI (SF-539 CNS): 16900 µM | TGI (SK-MEL-2 melanoma): > 18700 µM | TGI (SK-MEL-28 melanoma): > 18700 µM | GI50 (SK-MEL-5 melanoma): 2410 µM | TGI (SK-MEL-5 melanoma): 6100 µM | TGI (SK-OV-3 ovarian): > 18700 µM | TGI (SN12C renal): > 18700 µM | TGI (SNB-19 CNS): > 18700 µM | TGI (SNB-75 CNS): > 18700 µM | TGI (SR leukemia): 5340 µM | TGI (SW-620 colon): > 18700 µM | TGI (T-47D breast): 9400 µM | GI50 (TK-10 renal): 2120 µM | TGI (TK-10 renal): > 18700 µM | TGI (U251 CNS): > 18700 µM | TGI (UACC-62 melanoma): 4930 µM | TGI (UO-31 renal): 10200 µM
